Reference: patent publication US20240122212A1 (SUNTORY HOLDINGS LIMITED, priority 2020, published 2024)

How the values were obtained:
[1] = Basic taste quality sensory evaluation by trained panelists, spitting test, against 6% sucrose control (Example 1); assay type: in vivo, human; settings: scale −3 to 3, 0 = no difference from 6% sucrose control; D-allulose 8.57 w/v %, D-arabinose 10 w/v % in pure water; 4 panelists
Method: In each evaluation item, the rating on a scale of −3 point to 3 point was performed, with the case where there is no difference from the control solution being 0. Quicker in sweetness onset, higher sweetness intensity, shorter lingering sweet aftertaste, lower bitterness intensity, and shorter lingering bitter aftertaste compared to the control were rated near 3 points. Slower in sweetness onset, lower sweetness intensity, longer lingering sweet aftertaste, higher bitterness intensity, and longer lingering bitter aftertaste compared to the control were rated near −3 points. That is, the closer to 0 point, the closer to the control. The evaluation was carried out by those (4 persons) who received sensory trainings as panelists by spitting test. The amount of a sweet substance contained in each sample solution was adjusted to be equal to the control solution on the calculation. […] The energy (kcal/100 ml) was calculated from the amount of the sweetener added.

[2] = Degree of sweetness relative to sucrose; settings: for degree of sweetness, median value: median of the range, sucrose = 1; for degree of sweetness at sweetness intensity of 0.3, times as much as that of sucrose: sweetness intensity 0.3; for degree of sweetness at sweetness intensity of 4.3, times as much as that of sucrose: sweetness intensity 4.3
Text: The “sweetness intensity” means an intensity of sweetness of a substance. […] A numerical value obtained by multiplying the degree of sweetness by a concentration Brix value of glucose is the sweetness intensity of glucose in terms of sucrose. Thus, when a concentration of glucose in terms of sucrose is Brix 1.5, the sweetness intensity of glucose is 0.65×1.5=0.975. The sweetness intensity of a sweetener in terms of sucrose can be calculated from a degree of sweetness shown in the following table or a value of a known degree of sweetness.
For example, when the sweetness intensity of sucrose per unit concentration Brix 1 is defined as a degree of sweetness of 1, a degree of sweetness of rebaudioside D is about 200 to 250 (median value 225), a degree of sweetness of rebaudioside M is about 200 to 260 (median value 230), a degree of sweetness of rebaudioside B is about 325, a degree of sweetness of rebaudioside A is about 200 to 300 (median value 250), a degree of sweetness of rebaudioside N is about 200 to 250 (median value 225), a degree of sweetness of rebaudioside O is about 200 to 250 (median value 225), a degree of sweetness of rebaudioside E is about 70 to 80 (median value 75), a degree of sweetness of a Luo han guo extract (containing 40% of Mog V) is about 110 to 150 (median value 130), a degree of sweetness of mogroside V is about 240 to 300 (median value 270), and a degree of sweetness of thaumatin is about 2,000, and a degree of sweetness of brazzein is about 500 to 2,000 (median value 1,250). The numerical value obtained by multiplying these degrees of sweetness by a concentration (w/v % (considered to be the same as w/w % in the case of a beverage)) of the high-intensity sweetener in a fruit juice beverage is a sweetness intensity of the high-intensity sweetener. The relative ratio in degrees of sweetness of various sweeteners to the degree of sweetness of 1 of sucrose can be determined from a known sugar sweetness conversion table, and the like. In the present description, when a degree of sweetness is shown in a numerical value range, the median value may be used. However, a sweetener having different values in a degree of sweetness by literatures, a relative ratio in a degree of sweetness to the degree of sweetness of 1 of sucrose can be defined by a sensory test. Examples of such a sensory test include a method in which samples were prepared by adding sucrose having a sweetness intensity of Brix 3.0 to 5.0 in 0.5 increments to pure water, and of which a sucrose-added sample having a sweetness intensity equal to an aqueous solution of a sweetener in a predetermined concentration is selected.
Additionally, for a sweetener with a variable degree of sweetness as a sweetness intensity increases, degrees of sweetness in different concentrations are actually measured and plotted whereby a degree of sweetness in a predetermined concentration may be calculated from the obtained approximate curve.

[3] = value used to design the sample solutions

Molecule | degree of sweetness, median value [2] | degree of sweetness at sweetness intensity of 0.3, times as much as that of sucrose [2, 3] [times] | degree of sweetness at sweetness intensity of 4.3, times as much as that of sucrose [2, 3] [times] | also measured
O=C(CO)[C@H](O)[C@H](O)[C@H](O)CO [D-Allulose] | – | – | – | Bitterness intensity [1]: −1 point; Lingering bitter aftertaste [1]: −0.625 point; Lingering sweet aftertaste [1]: 0.125 point; Quickness in sweetness onset [1]: 0.125 point; Sweetness intensity [1]: −0.125 point; degree of sweetness, times as much as that of sucrose [2, 3]: 0.7 times
O=C[C@H](O)[C@@H](O)[C@H](O)[C@H](O)CO [Glucose] | 0.65 | – | – | –
C[C@H](CC[C@@H](O[C@@H]1O[C@H](CO[C@@H]2O[C@H](CO)[C@@H](O)[C@H](O)[C@H]2O)[C@@H](O)[C@H](O)[C@H]1O[C@@H]1O[C@H](CO)[C@@H](O)[C@H](O)[C@H]1O)C(C)(C)O)[C@H]1CC[C@@]2(C)[C@@H]3CC=C4[C@@H](CC[C@H](O[C@@H]5O[C@H](CO[C@@H]6O[C@H](CO)[C@@H](O)[C@H](O)[C@H]6O)[C@@H](O)[C@H](O)[C@H]5O)C4(C)C)[C@]3(C)[C@H](O)C[C@]12C [mogroside V] | 270 | – | – | –
C=C1C[C@@]23CC[C@H]4[C@@](C)(CCC[C@@]4(C)C(=O)O[C@@H]4O[C@H](CO)[C@@H](O)[C@H](O)[C@H]4O)[C@@H]2CC[C@]1(O[C@@H]1O[C@H](CO)[C@@H](O)[C@H](O[C@@H]2O[C@H](CO)[C@@H](O)[C@H](O)[C@H]2O)[C@H]1O[C@@H]1O[C@H](CO)[C@@H](O)[C@H](O)[C@H]1O)C3 [rebaudioside A] | 250 | 100 | 190.5 | –
C=C1C[C@@]23CC[C@H]4[C@@](C)(CCC[C@@]4(C)C(=O)O[C@@H]4O[C@H](CO)[C@@H](O)[C@H](O)[C@H]4O[C@@H]4O[C@H](CO)[C@@H](O)[C@H](O)[C@H]4O)[C@@H]2CC[C@]1(O[C@@H]1O[C@H](CO)[C@@H](O)[C@H](O[C@@H]2O[C@H](CO)[C@@H](O)[C@H](O)[C@H]2O)[C@H]1O[C@@H]1O[C@H](CO)[C@@H](O)[C@H](O)[C@H]1O)C3 [rebaudioside D] | 225 | 100 | 190.5 | –
C=C1C[C@@]23CC[C@H]4[C@@](C)(CCC[C@@]4(C)C(=O)O[C@@H]4O[C@H](CO)[C@@H](O)[C@H](O)[C@H]4O[C@@H]4O[C@H](CO)[C@@H](O)[C@H](O)[C@H]4O)[C@@H]2CC[C@]1(O[C@@H]1O[C@H](CO)[C@@H](O)[C@H](O)[C@H]1O[C@@H]1O[C@H](CO)[C@@H](O)[C@H](O)[C@H]1O)C3 [rebaudioside E] | 75 | – | – | –
C=C1C[C@@]23CC[C@H]4[C@@](C)(CCC[C@@]4(C)C(=O)O[C@@H]4O[C@H](CO)[C@@H](O)[C@H](O[C@@H]5O[C@H](CO)[C@@H](O)[C@H](O)[C@H]5O)[C@H]4O[C@@H]4O[C@H](CO)[C@@H](O)[C@H](O)[C@H]4O)[C@@H]2CC[C@]1(O[C@@H]1O[C@H](CO)[C@@H](O)[C@H](O[C@@H]2O[C@H](CO)[C@@H](O)[C@H](O)[C@H]2O)[C@H]1O[C@@H]1O[C@H](CO)[C@@H](O)[C@H](O)[C@H]1O)C3 [rebaudioside M] | 230 | 100 | 190.5 | –
C=C1C[C@@]23CC[C@H]4[C@@](C)(CCC[C@@]4(C)C(=O)O[C@@H]4O[C@H](CO)[C@@H](O)[C@H](O[C@@H]5O[C@H](CO)[C@@H](O)[C@H](O)[C@H]5O)[C@H]4O[C@@H]4O[C@@H](C)[C@H](O)[C@@H](O)[C@H]4O)[C@@H]2CC[C@]1(O[C@@H]1O[C@H](CO)[C@@H](O)[C@H](O[C@@H]2O[C@H](CO)[C@@H](O)[C@H](O)[C@H]2O)[C@H]1O[C@@H]1O[C@H](CO)[C@@H](O)[C@H](O)[C@H]1O)C3 [rebaudioside N] | 225 | – | – | –
C=C1C[C@@]23CC[C@H]4[C@@](C)(CCC[C@@]4(C)C(=O)O[C@@H]4O[C@H](CO)[C@@H](O)[C@H](O[C@@H]5O[C@H](CO)[C@@H](O)[C@H](O)[C@H]5O)[C@H]4O[C@@H]4O[C@@H](C)[C@H](O)[C@@H](O[C@@H]5O[C@H](CO)[C@@H](O)[C@H](O)[C@H]5O)[C@H]4O)[C@@H]2CC[C@]1(O[C@@H]1O[C@H](CO)[C@@H](O)[C@H](O[C@@H]2O[C@H](CO)[C@@H](O)[C@H](O)[C@H]2O)[C@H]1O[C@@H]1O[C@H](CO)[C@@H](O)[C@H](O)[C@H]1O)C3 [rebaudioside O] | 225 | – | – | –
brazzein: sweet protein of Pentadiplandra brazzeana (QDKCKKVYENYPVSKCQLANQCNYDCKLDKHARSGECFYDEKRNLQCICDYCEY; UniProt P56552 1-54, looked up) | 1,250 | – | – | –
